The IC50 is the concentration that gives 50% inhibition.

The record followed here is article PMC3519852, “Non-Traditional Antibacterial Screening Approaches for the Identification of Novel Inhibitors of the Glyoxylate Shunt in Gram-Negative Pathogens” (PLoS ONE, 2012).

SMILES strings stand for the structures.

The target of one assay is T1, MS (Pseudomonas aeruginosa, UniProt Q9I636).
T1 construct: gene glcB
Kind of assay: DTNB detection of coenzyme A at […] nm. It is filed as biochemical.

Another assay addresses T2, ICL (Pseudomonas aeruginosa, UniProt Q9I0K4).
T2 construct: gene PA2634
T2 sequence (Q9I0K4 1-531): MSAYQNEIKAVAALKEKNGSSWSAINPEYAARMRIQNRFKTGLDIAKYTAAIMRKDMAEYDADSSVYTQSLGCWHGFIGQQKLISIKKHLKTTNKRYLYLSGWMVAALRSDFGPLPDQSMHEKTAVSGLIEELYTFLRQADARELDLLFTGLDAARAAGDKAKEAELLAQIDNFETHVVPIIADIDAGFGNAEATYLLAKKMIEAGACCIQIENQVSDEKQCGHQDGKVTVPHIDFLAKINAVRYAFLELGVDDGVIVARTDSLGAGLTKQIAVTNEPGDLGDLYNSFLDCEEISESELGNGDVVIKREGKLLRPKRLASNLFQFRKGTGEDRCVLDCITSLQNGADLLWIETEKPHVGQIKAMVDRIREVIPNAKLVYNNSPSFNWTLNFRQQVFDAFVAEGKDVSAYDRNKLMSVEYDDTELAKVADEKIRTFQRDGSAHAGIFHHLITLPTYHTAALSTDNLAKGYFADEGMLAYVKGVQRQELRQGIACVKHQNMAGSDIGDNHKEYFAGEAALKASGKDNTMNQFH
Kind of assay: absorbance at […] nm, phenylhydrazine assay. It is filed as biochemical.

T1 sequence (Q9I636 whole entry): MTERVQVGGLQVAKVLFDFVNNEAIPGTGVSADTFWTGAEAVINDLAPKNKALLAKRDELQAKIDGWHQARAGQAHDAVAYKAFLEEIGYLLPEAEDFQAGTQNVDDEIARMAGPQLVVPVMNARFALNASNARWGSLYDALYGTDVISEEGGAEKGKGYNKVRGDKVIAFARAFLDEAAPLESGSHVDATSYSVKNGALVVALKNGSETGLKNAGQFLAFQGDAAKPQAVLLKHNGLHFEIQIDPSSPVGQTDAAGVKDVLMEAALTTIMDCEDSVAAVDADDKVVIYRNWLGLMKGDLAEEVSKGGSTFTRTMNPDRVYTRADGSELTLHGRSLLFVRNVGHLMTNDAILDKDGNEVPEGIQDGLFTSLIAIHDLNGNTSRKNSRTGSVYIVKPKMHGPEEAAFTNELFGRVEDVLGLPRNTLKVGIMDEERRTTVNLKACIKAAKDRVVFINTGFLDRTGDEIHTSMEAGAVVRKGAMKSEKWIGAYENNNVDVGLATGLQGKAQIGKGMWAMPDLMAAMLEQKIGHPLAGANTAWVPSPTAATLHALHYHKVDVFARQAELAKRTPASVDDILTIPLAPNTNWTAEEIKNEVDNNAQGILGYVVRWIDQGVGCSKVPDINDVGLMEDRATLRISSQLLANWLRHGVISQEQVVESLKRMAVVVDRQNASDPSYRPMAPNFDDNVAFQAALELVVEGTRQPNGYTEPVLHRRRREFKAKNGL

`COc1ccccc1N1CCN(CCCNC(=O)C(Cc2ccc(F)c(F)c2)C(C)=O)CC1` (racemic) [compound 2, Compound 2]: the IC50 on MS was determined as 1770 nM; on ICL it was 240 nM.
The corresponding values for `Nc1nnc(SCc2ccc(O)c3ncccc23)s1` [compound 1, Compound 1] are 180 nM and 690 nM.
Turning to `CC(C)(C)OC(=O)/N=C(\NC(=O)OC(C)(C)C)Nc1cc(Cl)ccn1` [compound 3, Compound 3], the results for the IC50 against MS and against ICL were 5300 nM and 170 nM, respectively.
As for `CC(C)(C)OC(=O)NC(=Nc1cc(CCC(=O)O)ccn1)NC(=O)OC(C)(C)C` [compound 4, Compound 4], the values for the IC50 against MS and against ICL were 1290 nM and 30 nM, respectively.
Consider `N=C(N)Nc1cccc2ncccc12` [compound 7, Compound 7], for which the values for the IC50 against MS and at ICL were 6930 nM and 190 nM, respectively.
Take `N=C(N)Nc1ccc2nn[nH]c2c1` [compound 8, Compound 8]: the IC50 is 8880 nM on MS and 370 nM on ICL.
